# Results as given in US20250085201A1, “SUBSTITUTED QUADRUPOLAR FLUORESCENT DYES FOR LIVE CELL IMAGING” (Northwestern University, priority 2023, published 2025).
# “Also recorded” adds a separate entry of the source.
# Columns and labels:
# [1] = Absolute fluorescence quantum yield (integrating sphere); type: physicochemical; conditions: in H2O
# Experimental: (§1) Fluorescent dyes were dissolved in the appropriate solvents to afford 1 mM solutions prior to spectroscopic analysis. A portion of 30 μL of a 1 mM solution was diluted by adding a selected solvent to a sample with a total volume of 3000 μL, affording a 1×10^−5 M solution. UV/Vis Absorption spectra were recorded in glass cuvettes on a UV-3600 Shimadzu spectrophotometer. Steady-state emission spectra were acquired in quartz cuvettes with optical path-lengths of 10 mm containing the solution being analyzed using a HORIBA Fluoromax4 spectrofluorometer, which was equipped with an integrating sphere for determining the absolute photoluminescence quantum yield.
# Steady-state and time-resolved emission spectra for dyes 1-6, 7·2PF6 and 9·4PF6 were acquired using a HORIBA Fluorolog-3 spectrofluorometer, equipped with a time-correlated single photon counting (TCSPC) module (diode laser excitation at λ=375 nm) and an integrating sphere, which was used for absolute photo-luminescence quantum yield determinations. Picosecond time-resolved fluorescence measurements were recorded using a commercial direct-diode-pumped 100 kHz amplifier (Spirit 1040-HE, Spectra-Physics), producing a fundamental beam of 1040 nm (350 fs, 12 W) which was used to pump a non-collinear optical parametric amplifier (Spirit-NOPA, SpectraPhysics) capable of delivering tunable, high-repetition-rate pulses with pulse widths as short as sub-20 fs. Dyes 1-6, 7·2PF6 and 9·4PF6 were excited with 350 nm, 2 nJ laser pulses. Fluorescence was detected using a Hamamatsu C4780 Streakscope as previously described in the literature. Samples were prepared in 2-mm quartz cuvettes. All data were acquired in the single-photon-counting mode using the Hamamatsu HPD-TA software. The temporal resolution was approximately 2% of the sweep window. Single wavelength kinetic analysis was performed using a nonlinear least-squares fit to a sum of exponentials convoluted with an instrument response function. Visible and near-infrared femtosecond and nanosecond transient absorption (fsTA and nsTA, respectively) spectroscopies were performed following descriptions already recorded in the literature. The 330 nm, ˜100 fs pump pulses were generated at 1 μJ per pulse using a commercial collinear optical parametric amplifier (TOPAS-Prime, Light-Conversion, Ltd.); 414-nm pump pulses were obtained by second-harmonic generation of the 828 nm fundamental. The pump polarization was randomized using a commercial depolarizer (DPU-25-A, Thorlabs, Inc.) to eliminate any orientational dynamics resulting from the experiment. Spectra were collected on commercial spectrometers (customized Ultrafast Systems Helios and EOS spectrometers, for fsTA and nsTA, respectively) for each time window. All samples were stirred to avoid localized heating or degradation effects. The optical density was maintained at 0.6 for all samples.
# Steady-state and time-resolved emission spectra for dyes 7·2PF6 and 9·4PF6 were acquired using a HORIBA Fluorolog-3 spectrofluorometer, equipped with a time-correlated single photon counting (TCSPC) module (diode laser excitation at =375 nm) and an integrating sphere, which was used for absolute photo-luminescence quantum yield determinations. Picosecond time-resolved fluorescence measurements were recorded using a commercial direct-diode-pumped 100 kHz amplifier (Spirit 1040-HE, Spectra-Physics), producing a fundamental beam of 1040 nm (350 fs, 12 W) which was used to pump a non-collinear optical parametric amplifier (Spirit-NOPA, SpectraPhysics) capable of delivering tunable, high-repetition-rate pulses with pulse widths as short as sub-20 fs. The samples 7·2PF6 and 9·4PF6 were excited with […], 2 nJ laser pulses. Fluorescence was detected using a Hamamatsu C4780 Streakscope as previously described in the literature.^71 Samples were prepared in 2-mm quartz cuvettes. All data were acquired in the single-photon-counting mode using the Hamamatsu HPD-TA software. […]
# [2] = Steady-state UV/Vis absorption and fluorescence emission spectra; type: physicochemical; conditions: micromolar concentrations
# Experimental: Fluorescent dyes 1-6, 7·2PF6, 8·2PF6, 9·4PF6 and 9·4Cl were dissolved in THF (1-5), MeCN (6, 7·2PF6, 8·2PF6 and 9.4PF6) and H2O (9.4Cl), respectively, to afford 10 μM solutions prior to spectroscopic analysis. For comparison, their normalized (i) UV/Vis absorption (FIG. 2) and (ii) the fluorescence emission (FIG. 3) spectra of quadrupolar dyes are overlayed, displaying a large range of S1 absorbance and emission maxima, which rely highly on their quadrupolarity that is correlated to the electron-deficiency of the ARs.
# as §1
# [3] = system: MCF-7 breast cancer cells; assay: Cell uptake and live cell laser scanning confocal imaging; type: cell-based; conditions: for uptake and intracellular distribution (confocal images): 24 h, λex=405 nm
# Experimental: Because of its low cytotoxicity and emission (FIG. 3) in the green region (548 nm) at micromolar concentrations (ΦF=0.15), water-soluble 9·4Cl was subjected to live cell imaging with MCF-7 breast cancer cells. Living cells treated with the tetracationic cyclophane at 50 and 20 μM (FIG. 7) and as low as 1 μM (FIG. 10) concentrations, were imaged by laser scanning confocal microscopy.
# MCF-7 Breast cancer cells were grown in standard Dulbecco's modified eagle medium (DMEM), which was supplemented with 10% Fetal Bovine Serum (FBS) and 1% Penicillin-Streptomycin (Corning). Cells were seeded into an 8-well imaging coverglass chamber (manufacturer-CellVis) or multiwell plate using phenol red free DMEM about 24 h prior to treatment. Dye 9·4Cl was resuspended in deionized H2O before being diluted to their final concentrations in the cell culture media. Cells were treated with the dye for 24 h prior to imaging. Uptake assays were carried out at concentrations from 1-50 μM, including a vehicle control (untreated). For the cell growth assays, cells were treated with the dye for 24 h at a range of concentrations from 0.1-50 μM.
# Confocal imaging was performed on a Leica SP8 laser scanning confocal microscope on a DMi8 […] stand with LAS X software in the Biological Imaging Facility (BIF) at Northwestern University. Uptake images were taken with a 63×/1.4 NA objective, scanning at a zoom of two with a pinhole of one Airy unit (AU) at 600 Hz with a galvo scanner and line averaging of two. Images were 92.35×92.35 μm (1024×1024) with 10 slices in the z direction with a step size of 0.3 μm (total stack volume 3.0 μm). A single excitation wavelength (405 nm) was used at a power of approximately 14 μW. For the emission collection, a Leica spectral Hybrid (HyD) detector set to collect a wavelength range of 500-650 nm (with a gain of 24%) was used. A transmitted light image was also collected simultaneously using the timeline photomultiplier (TL-PMT). Images were processed with FIJI/ImageJ (NIH) and settings were kept consistent throughout the series of images. Images presented are maximum intensity projections.
# Solubility (qualitative) = type: physicochemical; conditions: Cl− salt
smiles,measurement,setting,value
COc1cc2c(OC)cc1-c1cc[n+](cc1)Cc1ccc(cc1)C[n+]1ccc(cc1)-c1cc(OC)c(cc1OC)-c1cc[n+](cc1)Cc1ccc(cc1)C[n+]1ccc-2cc1 [9·4Cl],Quantum Yield (ΦF),[1],0.15
same,emission in the green region,[2],548 nm
same,uptake and intracellular distribution (confocal images),"[3]; 50 μM and 10 μM, emission 500-650 nm",taken up by living cells and concentrated in intracellular compartments
same,uptake and intracellular distribution (confocal images),"[3]; MCF-7, 1 μM, emission 500-650 nm",taken up by living cells and concentrated in intracellular compartments
same,fluorescence in cells,"[3]; MCF-7, 405 nm laser excitation, emission 500-650 nm",fluoresces brightly in cells
same,cell uptake,"[3]; MCF-7 cells, 1-50 μM",readily taken up by cells
same,cell uptake at low treatment concentrations,[3]; as low as 1 μM,readily taken up by cells
same,solubility in H2O,Solubility (qualitative),readily soluble; also recorded: Water soluble
